These results are taken from patent US20240423946A1, “COMPOUND FOR TREATING NON-ALCOHOLIC FATTY LIVER DISEASE AND RELATED DISEASES” (Algiax Pharmaceuticals GmbH, priority 2021, published 2024).

Assay type in all cases: cell-based
Assay [1] deals with primary human hepatocytes. The experiment in a line: Palmitate-induced apoptosis, caspase 3/7 activity in human primary hepatocytes. The following applies: 24 h. From the text:
Human primary hepatocytes were purchased from Thermo Fisher and cultured according to the manufacturer's instructions. […] To achieve finale palmitate concentrations, sodium palmitate was complexed with a preheated BSA (Carl Roth, Karlsruhe, Germany) solution at a 2.6:1 molar ratio.

The next assay concerns NF-κB subunit p65. Kind of assay: Western blot, phospho-NF-κB p65 to NF-κB p65 ratio in HepG2 cells. As for the experimental part: Beside excessive hepatic fat accumulation, inflammation is one of the critical steps in the progression of NAFL to NASH. As an indicator of inflammation, phosphorylation of the transcription factor NF-κB was monitored by a phospho-p65 specific antibody using protein extraction and western blotting.
HepG2 cells were homogenized in lysis buffer including a protease and phosphatase inhibitor cocktail. Cell lysates were centrifuged at 12.000 rpm for 15 min. The protein concentrations were determined using the Pierce BCA protein assay kit (Thermo Fisher Scientific). 20 μg of Proteins were resolved on 4-20% gradient gels (Bio-Rad, Hercules, CA) and transferred onto an Immun-Blot PVDF membrane (Bio-Rad). Membranes were blocked with 5% non-fat dry milk or bovine serum albumin in TBPS containing 0.1% Tween for 1 h at RT, followed by an overnight incubation with the respective primary antibody: Phospho-NF-κB p65 and NF-κB p65 (Cell Signaling Technology, Frankfurt, Germany). Membranes were incubated with the corresponding HRP-coupled secondary antibody. Protein bands were visualized using an ECL Western blot detection substrate (Bio-Rad). The band intensities were quantified with the ChemStudio analysis software (Analytik Jena, Jena, Germany) and normalized by GAPDH band intensity.
For orientation: A western blot detects proteins with antibodies after separation by electrophoresis.

In another assay the test system is HepG2 cells. The experiment in a line: Palmitate-induced apoptosis, Caspase-Glo 3/7 activity in HepG2 cells. The following applies: 24 h. As for the experimental part: NAFLD is characterized by excessive hepatic fat accumulation which leads to cell death, including apoptosis, of liver cells in the progression of the disease. HepG2s (liver cell line) were seeded in a 96-well plate and cultured for 48 h before inducing cell death/apoptosis with 100 μM, 150 μM, 200 μM, 250 μM, 300 μM BSA-coupled palmitic acid (PA). A concentration-response curve to palmitate for apoptosis expressed as percentage of control of Caspase 3/7 (apoptosis marker) activity of HepG2 cells treated for 24 h were determined. As a positive control for apoptosis 2 μM staurosporine was used. Caspase 3/7 activity after 24 h was measured by a Caspase-Glo® 3/7 Assay (Promega) as described in the manufacturer's protocol. Luminescence was recorded after an incubation step of 35 min using the plate-reader luminometer of a Cytation™ 5.
HepG2 cells were treated with palmitate acid (200 μM) in the presence or absence of HK4 (100 nM) and GABA (100 μM), as well as with the vehicle BSA and the positive control for apoptosis staurosporine (STP) (2 μM) for 24 h. As a negative control an apoptosis inhibitor (API) (100 μM) was used. As described in Example I Caspase 3/7 activity after 24 h was measured by a Caspase-Glo® 3/7 Assay (Promega).

The next assay deals with Caspase 7. The experiment in a line: Human apoptosis array, Caspase 7 protein in lysates of treated HepG2 cells. The following applies: HepG2, HK4 100 nM and PA. As for the experimental part:
Markers of apoptosis were analysed in the cell lysates of treated HepG2s with a human apoptosis array (RayBiotech, Peachtree Corners, GA) according to manufacturer's protocol. The total protein content was measured using the Pierce BCA protein assay kit (Thermo Fisher Scientific). Membranes were incubated with 250 μg of total protein from untreated and treated HepG2 cells. The spot intensities were quantified after an exposure of 500 ms using the ChemStudio analysis software (Analytik Jena) and normalized to the untreated control after background subtraction with the design spots for it.

With `Cc1cc(NC(=S)/C(C#N)=C(\O)C2CC2)ccc1C#N` [HK4, 2-Cyano-N-(4-cyano-3-methyl-phenyl)-3-cyclopropyl-3-hydroxy-thioacrylamide], the “Caspase 3/7 activity provoked by palmitate 100 μM, HK4 pre-treatment” value in assay [1] (HK4 (10 μM) 1 h prior to palmitate 100 μM) turned out to be 58.73±16.86%. The “Caspase 3/7 activity provoked by palmitate 200 μM, HK4 pre-treatment” value in assay [1] (HK4 (10 μM) 1 h prior to palmitate 200 μM) came out at 57.13±21.47%. Besides, the “Effect on phosphorylation of the NF-κB subunit p65 compared to untreated cells” value in the assay with NF-κB subunit p65 (HepG2, HK4 alone) is “no effect”. Also, the “Ratio of phosphorylated NF-κB to non-phosphorylated NF-κB subunit p65, % of PA” value in the assay with NF-κB subunit p65 (HepG2, pre-incubation with HK4 then palmitate acid, PA = 100%) turned out to be 55.24±10.64%. For the same compound, the “Caspase 3/7 activity provoked by palmitate 200 μM, with HK4” value with HepG2 cells (HepG2, HK4 100 nM + palmitate 200 μM) is reported as 47.32±19.56%. Besides, the “Caspase 3/7 activity compared to untreated control cells” value in the assay on HepG2 cells (HepG2, HK4 alone (100 nM)) is on record as 21.60±2.52%. For the same compound, the “Caspase 7 protein expression vs. PA alone” value in the assay on Caspase 7 was 60.91±4.18%.

For `NCCCC(=O)O` [GABA, gamma-Aminobutyric acid], the “PA-induced apoptosis rate (caspase 3/7 activity), with GABA” value with HepG2 cells (HepG2, GABA 100 μM + palmitate 200 μM) was 764.9±16.72%.

Take `CCCCCCCCCCCCCCCC(=O)O` [Palmitate acid, palmitic acid, reference compound]: in assay [1] (palmitate 100 μM alone), the “Caspase 3/7 activity provoked by palmitate 100 μM” value stood at 147.3±31.3%. The “Caspase 3/7 activity provoked by palmitate 200 μM” value in assay [1] (palmitate 200 μM alone) came to 155.1±3.78%; with HepG2 cells (HepG2, palmitate 200 μM alone), 1130±103.3%. The “Caspase 3/7 activity (apoptosis), percentage of control” value in the assay with HepG2 cells (HepG2, palmitate acid 100 μM alone) was found to be 342.2±12.25%.
